Measured values published in patent publication EP0256847B1, “Oxytocin and vasopressin antagonists” (Merck & Co., Inc., priority 1986, dated 1988).
*1 amine or outer side, *2 acyl side, *3 side chain or, on linkers, in order; H or OH if unused. Where a SMILES comes first, the peptide text is derived from it. [ ]: non-standard residue; d: D form. ξ: configuration not given here. X2 = O=C([C@@H]1CCCNN1[*:1])[*:2]; ξN(OH)Ile(3ξ) = CCC(C)C(NO)C(=O)O; X1 = O=C([C@H]1CCCNN1[*:1])[*:2]; dNMeF = CN[C@H](Cc1ccccc1)C(=O)O; NMeF = CN[CH](Cc1ccccc1)C(=O)O; X3 = O=C(C1CCCNN1[*:1])[*:2]

Target: oxytocin receptor
Test: [³H]Oxytocin binding assay, crude membrane preparation of rat uterus
Details: concentration of test compound to inhibit [³H]oxytocin binding by 50%; rat uterus membranes; read-out: IC₅₀ [³H]OT (uterus)
Text: Oxytocin receptors have been identified in mammalian uterine tissue through the use of in vitro radioligand binding assays. These receptor binding sites mediate the contractile response of the uterine myometrium to oxytocin. […] The assay uses a crude membrane preparation of rat uterus as the source of oxytocin receptors. […]

Structure (SMILES) | IC50 [nM]
CC[C@H](C)[C@@H]1NC(=O)[C@@H](Cc2ccccc2)NC(=O)[C@@H]2CCCN2C(=O)[C@@H](Cc2ccccc2)N(C)C(=O)[C@@H]2CCCNN2C(=O)[C@H]2CCCNN2C1=O [Example 9] (cyclo([X1][X2][dNMeF]P[dF]I)) | 170 ± 15
CCC(C)C1C(=O)N2NCCCC2C(=O)N2NCCCC2C(=O)N(C)C(Cc2ccccc2)C(=O)N2CCCC2C(=O)NC(Cc2ccccc2)C(=O)N1O (centres unmarked) [Formula I] (cyclo([ξN(OH)Ile(3ξ)][X3][X3][NMeF]PF); configuration not given here) | 370 ± 70
